Test results taken from patent publication US20140128352A1, “COMPOUNDS AND METHODS FOR MODULATING MITOCHONDRIAL METABOLISM AND REACTIVE OXYGEN SPECIES PRODUCTION” (Buck Institute for Research on Aging, priority 2012, published 2014).
Like-named read-outs stand apart in the source and are kept apart here.

Legend:
[1] = tested on: ubiquinone binding site of complex I (IQ); experiment: High-throughput screen: ROS production from ubiquinone binding site of complex I (IQ), isolated skeletal muscle mitochondria; format: biochemical, rat; conditions: for IQ: percent change in ROS from DMSO controls; for % Reduction in ROS production (IQ): Table 2, 5 mM succinate, compounds 2.5 μM, percent change from DMSO, positive control −100%
[2] = target: T1, outer ubiquinone binding site of complex III (IIIQO) (Rattus norvegicus, UniProt P00159+P20788); experiment: High-throughput screen: ROS production from outer ubiquinone binding site of complex III (IIIQO); format: biochemical
T1 construct: freshly isolated muscle mitochondria were assayed; from tissue; host or cells: rat skeletal muscle mitochondria (Wistar, Harlan Laboratories)

[3] = tested on: mitochondrial membrane potential (ΔΨm); experiment: Membrane potential (ΔΨm) counterscreen with TMRM; conditions: malate, nigericin
[4] = target: T2, succinate dehydrogenase/complex II (SDH) (Rattus norvegicus, UniProt P21913+Q641Z9+Q6PCT8+Q920L2); experiment: High-throughput screen: ROS production from succinate dehydrogenase/complex II (SDH); format: biochemical; conditions: for % Reduction in ROS Production (SDH): Table 5, 15 μM palmitoyl carnitine, 2.5 μM antimycin A, 2 μM myxothiazol, compounds 2.5 μM, percent change from DMSO
T2 construct: freshly isolated muscle mitochondria were assayed; from tissue; host or cells: rat skeletal muscle mitochondria (Wistar, Harlan Laboratories)
T2 sequence (Q920L2 35-656): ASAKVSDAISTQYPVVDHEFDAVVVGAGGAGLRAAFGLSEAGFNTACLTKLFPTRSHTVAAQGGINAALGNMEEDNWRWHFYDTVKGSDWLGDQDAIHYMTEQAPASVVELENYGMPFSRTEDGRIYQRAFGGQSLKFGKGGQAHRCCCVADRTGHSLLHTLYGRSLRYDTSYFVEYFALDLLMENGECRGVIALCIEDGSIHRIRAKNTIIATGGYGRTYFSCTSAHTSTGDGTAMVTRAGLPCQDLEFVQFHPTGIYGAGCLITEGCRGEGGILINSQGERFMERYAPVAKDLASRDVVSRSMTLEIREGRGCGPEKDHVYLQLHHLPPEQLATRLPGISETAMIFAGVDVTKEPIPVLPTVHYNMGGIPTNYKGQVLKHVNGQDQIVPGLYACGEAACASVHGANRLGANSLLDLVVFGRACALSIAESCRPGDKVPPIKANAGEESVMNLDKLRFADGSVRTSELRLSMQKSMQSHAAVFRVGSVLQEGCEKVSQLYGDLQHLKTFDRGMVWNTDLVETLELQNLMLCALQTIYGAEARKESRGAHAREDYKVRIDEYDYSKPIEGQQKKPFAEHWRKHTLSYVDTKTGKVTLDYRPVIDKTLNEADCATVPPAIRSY
T2 sequence (P21913 31-282): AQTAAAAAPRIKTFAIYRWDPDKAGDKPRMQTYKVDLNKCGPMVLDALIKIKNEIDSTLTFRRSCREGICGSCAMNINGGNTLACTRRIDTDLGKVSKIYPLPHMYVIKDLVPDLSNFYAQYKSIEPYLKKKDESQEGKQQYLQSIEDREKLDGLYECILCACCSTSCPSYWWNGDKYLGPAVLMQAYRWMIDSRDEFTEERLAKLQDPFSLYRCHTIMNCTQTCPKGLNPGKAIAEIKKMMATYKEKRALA
T2 sequence (Q641Z9 30-169 limits assumed): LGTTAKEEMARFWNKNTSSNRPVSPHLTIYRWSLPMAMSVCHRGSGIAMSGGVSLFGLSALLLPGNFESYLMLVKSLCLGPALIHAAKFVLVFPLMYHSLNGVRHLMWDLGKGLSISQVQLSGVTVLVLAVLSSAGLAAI
T2 sequence (Q6PCT8 57-159): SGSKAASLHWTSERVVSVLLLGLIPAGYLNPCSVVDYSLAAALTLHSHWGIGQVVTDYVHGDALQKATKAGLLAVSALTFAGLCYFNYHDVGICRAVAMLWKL

[5] = target: T3, flavin binding site of complex I (IF) (Rattus norvegicus, UniProt Q5XIH3); experiment: High-throughput screen: ROS production from flavin binding site of complex I (IF); format: biochemical
T3 construct: freshly isolated muscle mitochondria were assayed; from tissue; host or cells: rat skeletal muscle mitochondria (Wistar, Harlan Laboratories)
T3 sequence (Q5XIH3 21-464 limits assumed, one chain of several): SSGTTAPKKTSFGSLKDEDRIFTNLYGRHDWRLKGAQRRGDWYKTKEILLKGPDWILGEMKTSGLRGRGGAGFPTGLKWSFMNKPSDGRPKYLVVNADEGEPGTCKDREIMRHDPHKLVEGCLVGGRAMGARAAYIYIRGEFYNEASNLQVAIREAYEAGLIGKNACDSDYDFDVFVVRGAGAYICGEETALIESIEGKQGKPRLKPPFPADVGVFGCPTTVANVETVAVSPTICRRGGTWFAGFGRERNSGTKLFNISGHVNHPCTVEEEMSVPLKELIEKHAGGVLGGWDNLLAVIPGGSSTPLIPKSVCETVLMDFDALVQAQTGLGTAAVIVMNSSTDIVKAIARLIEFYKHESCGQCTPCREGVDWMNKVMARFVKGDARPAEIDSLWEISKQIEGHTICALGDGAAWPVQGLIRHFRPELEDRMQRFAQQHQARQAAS

[6] = target: T4, glycerol-3-phosphate dehydrogenase (GPDH) (Rattus norvegicus, UniProt P35571); experiment: High-throughput screen: ROS production from glycerol-3-phosphate dehydrogenase (GPDH); format: biochemical; parameters: inhibition: dose or concentration left out as unconfirmed
T4 construct: The activity of GPDH in intact mitochondria (0.3 mg/mL) was measured; from tissue; host or cells: rat skeletal muscle mitochondria (Wistar, Harlan Laboratories)
T4 sequence (P35571 43-727): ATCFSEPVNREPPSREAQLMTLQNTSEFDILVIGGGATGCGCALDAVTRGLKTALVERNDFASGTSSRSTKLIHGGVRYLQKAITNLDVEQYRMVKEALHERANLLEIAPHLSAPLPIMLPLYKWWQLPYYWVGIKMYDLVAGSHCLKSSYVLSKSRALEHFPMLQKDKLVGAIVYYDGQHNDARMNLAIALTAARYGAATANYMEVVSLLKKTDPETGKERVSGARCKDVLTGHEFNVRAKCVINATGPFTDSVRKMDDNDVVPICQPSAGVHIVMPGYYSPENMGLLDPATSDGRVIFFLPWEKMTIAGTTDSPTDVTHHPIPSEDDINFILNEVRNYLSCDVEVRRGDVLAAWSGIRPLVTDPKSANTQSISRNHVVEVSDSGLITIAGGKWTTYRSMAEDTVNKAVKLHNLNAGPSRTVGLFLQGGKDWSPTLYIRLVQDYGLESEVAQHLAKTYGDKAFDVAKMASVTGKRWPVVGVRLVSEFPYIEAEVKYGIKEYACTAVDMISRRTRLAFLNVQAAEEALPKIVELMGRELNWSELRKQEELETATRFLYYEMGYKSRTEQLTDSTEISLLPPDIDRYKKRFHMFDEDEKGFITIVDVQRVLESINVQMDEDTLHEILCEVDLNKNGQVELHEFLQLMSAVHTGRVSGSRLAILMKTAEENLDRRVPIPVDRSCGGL
Description: Skeletal muscle mitochondria were isolated from 5-8 week old female Wistar rats (Harlan Laboratories). Minced muscle was homogenized in buffer containing bacterial protease Type VIII prior to differential centrifugation to separate mitochondria from other tissue components. Unless otherwise stated, freshly isolated muscle mitochondria were assayed in buffer containing 120 mM KCl, 5 mM HEPES, 1 mM EGTA, 0.3% (w/v) bovine serum albumin. Where indicated, CaCl2 was added to yield a final free concentration of 250 nM calcium at pH 7.0 at 37° C.
Compounds (10 mM in DMSO) were randomly selected from a library of 24,000 compounds obtained from ChemBridge and curated by the lab of Robert Hughes at the Buck Institute. Master screening plates were prepared using a Biomek FX liquid handling workstation (Beckman) to transfer 1 μL of each compound into individual wells on 96-well storage plates (80 compounds per plate). Master plates were sealed with foil and stored at −80° C. Just prior to use, plates were brought to room temperature and diluted 300-fold with standard buffer (13.3X=33.3 μM). To monitor the performance of each assay throughout screening and to provide intra-plate normalization reference points, DMSO negative controls and known mitochondrial inhibitor positive controls were included on each Master compound plate.
Total amounts of superoxide and H2O2 production were determined fluorometrically as H2O2, without distinguishing between them, in the presence of exogenous superoxide dismutase (25 units/mL final), horseradish peroxidase (1 unit/mL final), and Amplex UltraRed (25 μM final) as described (Affourtit, C. et al. (2012) Measurement of proton leak and electron leak in isolated mitochondria. Methods Mol. Biol. 810: 165-82). Just prior to use, a bulk 3.3X solution was made in standard buffer and distributed into a 2 mL deep well 96-well transfer plate.
To assess the effects of a compound on ROS production from glycerol-3-phosphate dehydrogenase (GPDH), Start Solution containing 25 mM glycerol phosphate, 4 μM rotenone, 2.5 μM antimycin A, 1 mM malonate, 2 μM myxothiazol was distributed into standard 96-well transfer plates. A Biomek FX workstation was programmed to dispense solutions into black 96-well assay plates. Solutions were dispensed to all assay plates in the following order: ROS Detection solution described in Example 3, Mitochondria solution described in Example 1 to a final concentration of 0.2 mg/ml, and Compound dilutions described in Example 2. Duplicate assay plates were made and each was initiated by the addition of 3.3X Start solution containing 25 mM glycerol phosphate, 4 μM rotenone, 2.5 μM antimycin A, 1 mM malonate, 2 μM myxothiazol. Plates were incubated in the dark at room temperature for 30-40 minutes before acquiring endpoint fluorescence using a Victor 3V plate reader (Perkin Elmer) equipped with 550/590 nm excitation/emission filters.
The fluorescence values in each well were scaled as the percent change from the intra-plate DMSO controls. […] Following initial scaling, intra-plate normalized values were subjected to Tukey's two-way median polish to remove row and column dependent positional effects (Malo et al., 2006).

[7] = Table 7, percent change in ROS from DMSO controls, read-out: IIIQO
[8] = Table 8, percent change in ROS from DMSO controls
[9] = Table 9, percent change in ROS from DMSO controls, read-out: IIIQo
[10] = Table 7, percent change in ROS from DMSO controls
[11] = Table 9, percent change in ROS from DMSO controls
[12] = Table 3, 5 mM glutamate, 5 mM malate, 4 μM rotenone, compounds 2.5 μM, percent change from DMSO, positive control −100%, read-out: % Reduction in ROS production (IF)
[13] = Table 7, percent change in ROS from DMSO controls, read-out: IF
[14] = Table 4, 5 mM succinate, 4 μM rotenone, 2.5 μM antimycin A, compounds 2.5 μM, percent change from DMSO, read-out: % Reduction in ROS production (IIIQO)

Compound	inhibition at 2.5 µM [2, 7] [%]	IIIQO [2, 8]	inhibition at 2.5 µM [2, 9] [%]	inhibition at 2.5 µM [4, 10] [%]	SDH [4, 8]	SDH [4, 11]	inhibition [6, 10] [%]	GPDH [6, 8]	GPDH [6, 11]	IQ ([1]; Table 7)	IQ ([1]; Table 8)	IQ ([1]; Table 9)	ΔΨm ([3]; Table 8, glutamate)	ΔΨm ([3]; Table 9, glutamate)	inhibition at 2.5 µM [5, 12] [%]	inhibition at 2.5 µM [5, 13] [%]	IF [5, 8]	IF [5, 11]	other results
Cc1ccc(S(=O)(=O)Nc2nnc(C)s2)cc1 [Compound 27]	0.1	−0.1	0.1	-0.8	0.8	0.8	0.4	−0.4	−0.4	0.0	0.0	0.0	1.6	1.6	19.6	19.6	−19.6	−19.6	
c1cc2c3c(ccc(CSCCc4ccncc4)c3c1)CC2 [Compound 36]	33.6	−33.6	33.6	1.1	−1.1	−1.1	4.9	−4.9	−4.9	3.7	3.7	3.7	0.0	0.0		-0.6	0.6	0.6	inhibition at 2.5 µM [2, 14]: 33.6%
O=C(Nc1ccccc1F)[C@@H]1C2C=CC(C2)[C@@H]1C(=O)O (some centres unmarked) [Compound 20]	-1.2	1.2	-1.2	0.7	−0.7	−0.7	1.7	−1.7	−1.7	0.2	0.2	0.2	−0.3	−0.3	24	24	−24.0	−24.0	
COc1ccc(NS(=O)(=O)c2cccc(C(=O)Nc3ccc(C)cc3)c2)cc1 [Compound 11]	1.9	−1.9	1.9	0.2	−0.2	−0.2	5	−5.0	−5.0	−23.8	−23.8	−23.8	−0.4	−0.4		-3.3	3.3	3.3	% Reduction in ROS production (IQ) [1]: −23.8%
Cc1cc(C)c(OCC(O)CNC(C)(C)CC(C)(C)C)c(C)c1.Cl (centres unmarked) [Compound 14]		−2.9								−4.7	−4.7	−4.7	−0.7	−0.7					IIIQO [2, 10]: −2.9; IIIQO [2, 11]: −2.9; SDH [4]: −9.6; % Reduction in ROS production (IF) [5]: −37.7%; IF [5]: −37.7; GPDH [6]: −3.9
CC(C)(C)NS(=O)(=O)c1ccc2c(c1)C(=O)c1ccccc1C2=O [Compound 1]	-1	1.0	-1	8.2	−8.2	−8.2	-4.1	4.1	4.1	−60.6	−60.6	−60.6	−1.5	−1.5		-10	10.0	10.0	% Reduction in ROS production (IQ) [1]: −60.6%
O=C(Nc1ccccc1[N+](=O)[O-])c1cccc(S(=O)(=O)Nc2ccccc2)c1 [Compound 73]		−1.3			−26.9	−26.9		−2.4	−2.4	−4.6	−4.6	−4.6	−0.2	−0.2			−0.7	−0.7	IIIQO [2, 10]: −1.3; IIIQO [2, 11]: −1.3; % Reduction in ROS Production (SDH) [4]: −26.9%; SDH [4, 10]: −26.9; IF [5, 10]: −0.7; GPDH [6, 10]: −2.4
Clc1ccc(N2CCN(CC(c3ccccc3)c3ccccc3)CC2)cc1 [Compound 83]											2		1						inhibition at 2.5 µM [2, 14]: 29%; inhibition at 2.5 µM ([2]; Table 8, percent change in ROS from DMSO controls, read-out: IIIQO): 29%; % Reduction in ROS Production (SDH) [4]: −14%; inhibition at 2.5 µM [4, 8]: 14%; inhibition at 2.5 µM ([5]; Table 8, percent change in ROS from DMSO controls, read-out: IF): 1%; inhibition [6, 8]: 3%
CN(C)CCN(Cc1ccccc1)Cc1ccccc1Br [Compound 23]	8.8	−8.8	8.8	-1.7	1.7	1.7	1	−1.0	−1.0	−2.7	−2.7	−2.7	−1.5	−1.5	21.1	21.1	−21.1	−21.1	
O=C(COc1ccc(Cl)cc1Cl)Nc1ccc(F)cc1F [Compound 24]	1.3	−1.3	1.3	1.5	−1.5	−1.5	2	−2.0	−2.0	−1.0	−1.0	−1.0	0.1	0.1	19.8	19.8	−19.8	−19.8	

More lines, main results first:

inhibition at 2.5 µM [2, 7] [%]	IIIQO [2, 8]	inhibition at 2.5 µM [2, 9] [%]	inhibition at 2.5 µM [4, 10] [%]	SDH [4, 8]	SDH [4, 11]	inhibition [6, 10] [%]	GPDH [6, 8]	GPDH [6, 11]	Compound	IQ ([1]; Table 7)	IQ ([1]; Table 8)	IQ ([1]; Table 9)	ΔΨm ([3]; Table 8, glutamate)	ΔΨm ([3]; Table 9, glutamate)	inhibition at 2.5 µM [5, 12] [%]	inhibition at 2.5 µM [5, 13] [%]	IF [5, 8]	IF [5, 11]	other results
25.1	−25.1	25.1	2.7	−2.7	−2.7	4.2	−4.2	−4.2	Cc1cc(C)c(S(=O)(=O)N2CCCC2=O)c(C)c1 [Compound 40]	4.3	4.3	4.3	0.7	0.7		-1.8	1.8	1.8	inhibition at 2.5 µM [2, 14]: 25.1%
-7.6	7.6	-7.6	-0.4	0.4	0.4	1.8	−1.8	−1.8	O=S(=O)(Nc1ccc(Br)cc1)c1ccc(C2CCCCC2)cc1 [Compound 8]	−36.3	−36.3	−36.3	−0.3	−0.3		4.2	−4.2	−4.2	% Reduction in ROS production (IQ) [1]: −36.3%
6.2	−6.2	6.2	-5.5	5.5	5.5	2.6	−2.6	−2.6	CCN1CCN(C2CCC(C(C)(C)C)CC2)CC1 (centres unmarked) [Compound 22]	−0.4	−0.4	−0.4	−0.9	−0.9	22.1	22.1	−22.1	−22.1	
